Measurements published in ChEMBL document CHEMBL1201862, “PubChem BioAssay data set” (2004).
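Compound exposure: 48 hours, 5 concentrations, 96-well plates. GI50 marks 50% less growth.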 The source made the active and inactive calls. Rule as the data show it: active = GI50 up to about 1.1 µM and inactive = higher.

How the values were obtained:
Test in all cases: DTP human tumour cell line panel, 48 h
SNB-19 = system: SNB-19
ACHN = system: ACHN
NCI/ADR-RES = system: NCI/ADR-RES
UACC-257 = system: UACC-257
DU-145 = system: DU-145
SK-MEL-5 = system: SK-MEL-5
HOP-62 = system: HOP-62
HCC 2998 = system: HCC 2998
DMS-273 = system: DMS-273
SNB-75 = system: SNB-75
U-251 = system: U-251
LOX IMVI = system: LOX IMVI
K562 = system: K562
Hs-578T = system: Hs-578T
786-0 = system: 786-0
RXF 393 = system: RXF 393
NCI-H226 = system: NCI-H226
IGROV-1 = system: IGROV-1
A498 = system: A498
NCI-H23 = system: NCI-H23
MDA-MB-231 = system: MDA-MB-231
T47D = system: T47D
M14 = system: M14
SK-MEL-28 = system: SK-MEL-28
NCI-H522 = system: NCI-H522
SN12C = system: SN12C
RXF 631 = system: RXF 631
MCF7 = system: MCF7
M19-MEL = system: M19-MEL
A549 = system: A549
UACC-62 = system: UACC-62
SK-OV-3 = system: SK-OV-3
DLD-1 = system: DLD-1
LXFL 529 = system: LXFL 529
HCT-116 = system: HCT-116
CCRF-CEM = system: CCRF-CEM
SW-620 = system: SW-620
XF498 = system: XF498
HOP-18 = system: HOP-18
HCT-15 = system: HCT-15
NCI-H460 = system: NCI-H460
KM12 = system: KM12
SNB-78 = system: SNB-78
Malme-3M = system: Malme-3M
HL-60 = system: HL-60
TK-10 = system: TK-10
RPMI-8226 = system: RPMI-8226
OVCAR-5 = system: OVCAR-5
UO-31 = system: UO-31
COLO 205 = system: COLO 205
SF-295 = system: SF-295
OVCAR-8 = system: OVCAR-8
DMS-114 = system: DMS-114
OVCAR-4 = system: OVCAR-4
EKVX = system: EKVX
KM-20L2 = system: KM-20L2
BT-549 = system: BT-549
HT-29 = system: HT-29
HOP-92 = system: HOP-92
OVCAR-3 = system: OVCAR-3
SR = system: SR
SF-539 = system: SF-539
PC-3 = system: PC-3
CAKI-1 = system: CAKI-1
MDA-MB-435 = system: MDA-MB-435
MDA-N = system: MDA-N
SK-MEL-2 = system: SK-MEL-2
SF-268 = system: SF-268
MOLT-4 = system: MOLT-4

Cc1c2cc[n+]([O-])cc2c(C)c2c1[nH]c1ccccc12
GI50 (SNB-19): 7.13 µM (inactive)
GI50 (ACHN): 1.94 µM (inactive)
GI50 (NCI/ADR-RES): 20.8 µM (inactive)
GI50 (UACC-257): 17.7 µM (inactive)
GI50 (DU-145): 8.73 µM (inactive)
GI50 (SK-MEL-5): 6.85 µM (inactive)
GI50 (HOP-62): 5.74 µM (inactive)
GI50 (HCC 2998): 12.5 µM (inactive)
GI50 (DMS-273): 3.82 µM (inactive)
GI50 (SNB-75): 5.77 µM (inactive)
GI50 (U-251): 3.76 µM (inactive)
GI50 (LOX IMVI): 1.67 µM (inactive)
GI50 (K562): 4.84 µM (inactive)
GI50 (Hs-578T): 3.54 µM (inactive)
GI50 (786-0): 2.74 µM (inactive)
GI50 (RXF 393): 6.73 µM (inactive)
GI50 (NCI-H226): 5.37 µM (inactive)
GI50 (IGROV-1): 6.89 µM (inactive)
GI50 (A498): 7.33 µM (inactive)
GI50 (NCI-H23): 6.04 µM (inactive)
GI50 (MDA-MB-231): 4.28 µM (inactive)
GI50 (T47D): 2.14 µM (inactive)
GI50 (M14): 7.1 µM (inactive)
GI50 (SK-MEL-28): 37.8 µM (inactive)
GI50 (NCI-H522): 5.97 µM (inactive)
GI50 (SN12C): 4.93 µM (inactive)
GI50 (RXF 631): 0.879 µM (active)
GI50 (MCF7): 1.21 µM (inactive)
GI50 (M19-MEL): 13.6 µM (inactive)
GI50 (A549): 4.28 µM (inactive)
GI50 (UACC-62): 7.14 µM (inactive)
GI50 (SK-OV-3): 10.8 µM (inactive)
GI50 (DLD-1): 5.42 µM (inactive)
GI50 (LXFL 529): 4.65 µM (inactive)
GI50 (HCT-116): 1.39 µM (inactive)
GI50 (CCRF-CEM): 2.88 µM (inactive)
GI50 (SW-620): 1.87 µM (inactive)
GI50 (XF498): 9.98 µM (inactive)
GI50 (HOP-18): 45 µM (inactive)
GI50 (HCT-15): 5.22 µM
GI50 (NCI-H460): 2.45 µM (inactive)
GI50 (KM12): 9.75 µM (inactive)
GI50 (SNB-78): 7.71 µM (inactive)
GI50 (Malme-3M): 8.95 µM (inactive)
GI50 (HL-60): 7.8 µM (inactive)
GI50 (TK-10): 5.32 µM (inactive)
GI50 (RPMI-8226): 6.19 µM (inactive)
GI50 (OVCAR-5): 4.59 µM (inactive)
GI50 (UO-31): 5.47 µM (inactive)
GI50 (COLO 205): 2.15 µM (inactive)
GI50 (SF-295): 4.58 µM (inactive)
GI50 (OVCAR-8): 2.86 µM (inactive)
GI50 (DMS-114): 11.2 µM (inactive)
GI50 (OVCAR-4): 9.95 µM (inactive)
GI50 (EKVX): 11.4 µM (inactive)
GI50 (KM-20L2): 4.06 µM (inactive)
GI50 (BT-549): 9.64 µM (inactive)
GI50 (HT-29): 3.57 µM (inactive)
GI50 (HOP-92): 10.2 µM (inactive)
GI50 (OVCAR-3): 12.5 µM (inactive)
GI50 (SR): 1.29 µM (inactive)
GI50 (SF-539): 2.99 µM (inactive)
GI50 (PC-3): 5.04 µM (inactive)
GI50 (CAKI-1): 7.05 µM (inactive)
GI50 (MDA-MB-435): 6.61 µM (inactive)
GI50 (MDA-N): 4.15 µM (inactive)
GI50 (SK-MEL-2): 12.1 µM (inactive)
GI50 (SF-268): 4.9 µM (inactive)
GI50 (MOLT-4): 0.998 µM (active)
